Data from US9062055B2, “Fused pyrrole derivatives as PI3K inhibitors” (Incyte Corporation, priority 2010, dated 2015).
Counter-ions that a name gives are not always drawn.

Biological target: T1, PI3Kδ (p110δ/p85α) (Homo sapiens, UniProt O00329)
T1 construct: purchased Millipore (Bedford, Mass.)
Experiment: PI3Kδ Scintillation Proximity Assay
Type: biochemical
Conditions: TFA salts of racemates tested; 20 μM PIP2, 20 μM ATP, 4 nM PI3Kδ, 210 min, room temperature
Description: [γ-^33P]ATP (10 mCi/mL) was purchased from Perkin-Elmer (Waltham, Mass.). Lipid kinase substrate, D-myo-Phosphatidylinositol 4,5-bisphosphate (PtdIns(4,5)P2)D (+)-sn-1,2-di-O-octanoylglyceryl, 3-O-phospho linked (PIP2), CAS 204858-53-7, was purchased from Echelon Biosciences (Salt Lake City, Utah). PI3Kδ (p110δ/p85α) was purchased from Millipore (Bedford, Mass.). ATP, MgCl2, DTT, EDTA, MOPS and CHAPS were purchased from Sigma-Aldrich (St. Louis, Mo.). Wheat Germ Agglutinin (WGA) YSi SPA Scintillation Beads was purchased from GE healthcare life sciences (Piscataway, N.J.). The kinase reaction was conducted in polystyrene 384-well matrix white plate from Thermo Fisher Scientific in a final volume of 25 μL. Inhibitors were first diluted serially in DMSO and added to the plate wells before the addition of other reaction components. The final concentration of DMSO in the assay was 0.5%. The PI3K assays were carried out at room temperature in 20 mM MOPS, pH 6.7, 10 mM MgCl2, 5 mM DTT and CHAPS 0.03%. Reactions were initiated by the addition of ATP, the final reaction mixture consisted of 20 μM PIP2, 20 μM ATP, 0.2 μCi [γ-^33P] ATP, 4 nM PI3Kδ. Reactions were incubated for 210 min and terminated by the addition of 40 μL SPA beads suspended in quench buffer: 150 mM potassium phosphate pH 8.0, 20% glycerol. 25 mM EDTA, 400 μM ATP. The final concentration of SPA beads was 1.0 mg/mL After the plate sealing, plates were shaken overnight at room temperature and centrifuged at 1800 rpm for 10 minutes, the radioactivity of the product was determined by scintillation counting on Topcount (Perkin-Elmer). IC50 determination was performed by fitting the curve of percent control activity versus the log of the inhibitor concentration using the GraphPad Prism 3.0 software. See Table 1 for data related to compounds of the invention (TFA salts of racemates of each of the compounds were tested).

T1 sequence (O00329 whole entry): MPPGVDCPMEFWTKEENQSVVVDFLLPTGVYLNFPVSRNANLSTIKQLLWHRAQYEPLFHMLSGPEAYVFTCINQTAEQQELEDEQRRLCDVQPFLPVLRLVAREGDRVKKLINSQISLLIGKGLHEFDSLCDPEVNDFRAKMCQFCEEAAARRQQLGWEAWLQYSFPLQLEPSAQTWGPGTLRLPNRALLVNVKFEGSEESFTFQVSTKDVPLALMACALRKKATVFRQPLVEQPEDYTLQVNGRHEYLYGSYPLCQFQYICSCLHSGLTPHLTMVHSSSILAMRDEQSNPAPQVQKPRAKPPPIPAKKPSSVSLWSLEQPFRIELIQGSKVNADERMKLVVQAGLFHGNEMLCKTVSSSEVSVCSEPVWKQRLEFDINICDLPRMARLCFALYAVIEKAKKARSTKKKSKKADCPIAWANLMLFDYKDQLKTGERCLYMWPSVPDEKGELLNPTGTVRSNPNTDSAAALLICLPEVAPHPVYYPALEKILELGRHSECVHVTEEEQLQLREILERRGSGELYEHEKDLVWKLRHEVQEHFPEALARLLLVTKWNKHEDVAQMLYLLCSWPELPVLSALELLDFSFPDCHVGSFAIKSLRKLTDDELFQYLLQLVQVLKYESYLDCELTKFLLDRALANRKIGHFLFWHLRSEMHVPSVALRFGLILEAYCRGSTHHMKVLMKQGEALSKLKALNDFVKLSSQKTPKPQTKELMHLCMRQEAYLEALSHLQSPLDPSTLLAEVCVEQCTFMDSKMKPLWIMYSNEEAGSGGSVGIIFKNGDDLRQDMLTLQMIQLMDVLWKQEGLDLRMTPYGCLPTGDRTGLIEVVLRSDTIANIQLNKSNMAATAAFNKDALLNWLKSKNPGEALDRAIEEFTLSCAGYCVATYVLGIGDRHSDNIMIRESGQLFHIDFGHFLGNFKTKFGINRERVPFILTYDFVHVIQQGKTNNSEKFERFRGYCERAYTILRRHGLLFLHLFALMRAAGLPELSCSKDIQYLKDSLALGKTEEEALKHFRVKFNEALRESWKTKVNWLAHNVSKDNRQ
T1 sequence (P27986 whole entry partner): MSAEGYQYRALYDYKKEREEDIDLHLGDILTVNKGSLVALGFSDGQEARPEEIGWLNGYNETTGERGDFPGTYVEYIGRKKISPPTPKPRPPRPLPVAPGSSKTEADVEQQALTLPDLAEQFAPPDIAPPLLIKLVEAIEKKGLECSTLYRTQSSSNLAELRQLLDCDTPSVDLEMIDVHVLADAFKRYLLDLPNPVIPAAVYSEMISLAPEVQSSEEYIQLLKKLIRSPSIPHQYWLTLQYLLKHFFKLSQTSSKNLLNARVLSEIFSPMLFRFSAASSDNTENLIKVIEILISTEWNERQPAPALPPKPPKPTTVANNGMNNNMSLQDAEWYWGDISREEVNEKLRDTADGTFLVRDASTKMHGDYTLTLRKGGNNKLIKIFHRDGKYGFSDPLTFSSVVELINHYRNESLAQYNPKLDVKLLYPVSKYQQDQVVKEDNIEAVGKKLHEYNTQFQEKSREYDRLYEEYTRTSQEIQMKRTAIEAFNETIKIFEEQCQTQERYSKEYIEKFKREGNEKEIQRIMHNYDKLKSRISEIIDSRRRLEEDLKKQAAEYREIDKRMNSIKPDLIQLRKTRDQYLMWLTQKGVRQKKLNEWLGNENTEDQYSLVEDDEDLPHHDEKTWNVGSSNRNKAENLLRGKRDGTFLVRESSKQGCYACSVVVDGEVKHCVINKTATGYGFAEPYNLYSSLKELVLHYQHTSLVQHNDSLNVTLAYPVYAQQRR

| IC50 | Compound |
| --- | --- |
| ≤ 50 nM | CC(Nc1ncnc2[nH]cnc12)c1c(C#N)c2ccccc2n1-c1cccc(F)c1 (racemic) [Example 9, 2-(1-(9H-Purin-6-ylamino)ethyl)-1-(3-fluorophenyl)-1H-indole-3-carbonitrile 2,2,2-trifluoroacetate] |
| 100 to 250 nM | CC(Nc1ncnc2[nH]cnc12)c1cc2ccc(Cl)cc2n1-c1cccc(F)c1 (racemic) [Example 1, N-{1-[6-Chloro-1-(3-fluorophenyl)-1H-indol-2-yl]ethyl}-9H-purin-6-amine trifluoroacetate] |
| 50 to 100 nM | CC(Nc1ncnc2[nH]cnc12)c1c(Br)c2ccccc2n1-c1cccc(F)c1 (racemic) [Example 5, N-{1-[3-Bromo-1-(3-fluorophenyl)-1H-indol-2-yl]ethyl}-9H-purin-6-amine trifluoroacetate] |
| 50 to 100 nM | CC(Nc1ncnc2[nH]cnc12)c1c(Cl)c2c(Cl)cccc2n1-c1cccc(F)c1 (racemic) [Example 4, N-{1-[3,4-Dichloro-1-(3-fluorophenyl)-1H-indol-2-yl]ethyl}-9H-purin-6-amine trifluoroacetate] |
| ≤ 50 nM | CC(Nc1ncnc2[nH]cnc12)c1c(Cl)c2cccnc2n1-c1cccc(F)c1 (racemic) [Example 6, N-{1-[3-Chloro-1-(3-fluorophenyl)-1H-pyrrolo[2,3-b]pyridin-2-yl]ethyl}-9H-purin-6-amine bis(trifluoroacetate)] |
| ≤ 50 nM | CC(Nc1ncnc2[nH]cnc12)c1cc2c(Cl)cccc2n1-c1cccc(F)c1 (racemic) [Example 2, N-{1-[4-Chloro-1-(3-fluorophenyl)-1H-indol-2-yl]ethyl}-9H-purin-6-amine trifluoroacetate] |
| 100 to 250 nM | CC(Nc1ncnc2[nH]cnc12)c1c(F)c2cccnc2n1-c1cccc(F)c1 (racemic) [Example 10, N-(1-(3-Fluoro-1-(3-fluorophenyl)-1H-pyrrolo[2,3-b]pyridin-2-yl)ethyl)-9H-purin-6-amine bis(2,2,2-trifluoroacetate)] |
| ≤ 50 nM | Cc1c(C(C)Nc2ncnc3[nH]cnc23)n(-c2cccc(F)c2)c2ccccc12 (racemic) [Example 8, N-{1-[1-(3-Fluorophenyl)-3-methyl-1H-indol-2-yl]ethyl}-9H-purin-6-amine trifluoroacetate] |
| ≤ 50 nM | CC(Nc1ncnc2[nH]cnc12)c1c(Cl)c2ccccc2n1-c1cccc(F)c1 (racemic) [Example 3, N-{1-[3-Chloro-1-(3-fluorophenyl)-1H-indol-2-yl]ethyl}-9H-purin-6-amine trifluoroacetate] |
| 250 to 750 nM | CC(Nc1ncnc2[nH]cnc12)c1cc2cccnc2n1-c1cccc(F)c1 (racemic) [Example 7, N-(1-(1-(3-Fluorophenyl)-1H-pyrrolo[2,3-b]pyridin-2-yl)ethyl)-9H-purin-6-amine bis(2,2,2-trifluoroacetate)] |
